From patent US10869476B2 (priority 2015, dated 2020)
Where two headings read alike, the source gives them in different places.

Tests used:
Format in all cases: in vivo
[1] = test system: Gibberella zeae; settings: winter wheat kernels after harvest, Germany 2015; 75 g a.i./ha, 100 EC formulation plus adjuvant, BBCH 65; HPLC-MS/MS; Untreated Control 497
[2] = test system: Fusarium; settings: wheat, 100 EC, 67 days after application
[3] = test system: Fusarium head blight; settings: wheat field trials France and Germany 2016; for Fusarium head blight in % sev. after 11 to 20 days after application: UTC 13; for Fusarium head blight in % sev. after 21 to 46 days after application: UTC 35

Compound: CON(C(=O)c1cn(C)nc1C(F)F)C(C)Cc1c(Cl)cc(Cl)cc1Cl (stereo not shown) [Pydiflumetofen, 3-(Difluoromethyl)-N-methoxy-1-methyl-N-[1-(2,4,6-trichlorophenyl)-2-propanyl]-1H-pyrazole-4-carboxamide]
- Deoxynivalenol Content [1]: 44 ppm
- 3- Acetyl Deoxynivalenol ([2]; France, second trial (UTC 189), 45 g a.i./ha): 63 ppb
- 3- Acetyl Deoxynivalenol ([2]; France, second trial (UTC 189), 60 g a.i./ha): <50 ppb
- Nivalenol ([2]; Germany, first trial (UTC 126), 45 g a.i./ha): 0 ppb
- Nivalenol ([2]; Germany, first trial (UTC 126), 60 g a.i./ha): 0 ppb
- 3- Acetyl Deoxynivalenol ([2]; Germany, second trial (UTC 56), 45 g a.i./ha): 0 ppb
- 3- Acetyl Deoxynivalenol ([2]; Germany, second trial (UTC 56), 60 g a.i./ha): 0 ppb
- Nivalenol ([2]; Germany, second trial (UTC 159), 45 g a.i./ha): 0 ppb
- Nivalenol ([2]; Germany, second trial (UTC 159), 60 g a.i./ha): 0 ppb
- Fusarium head blight in % sev. after 11 to 20 days after application ([3]; 45 g a.i./ha): 42 % sev.
- Fusarium head blight in % sev. after 21 to 46 days after application ([3]; 45 g a.i./ha): 51 % sev.
- Fusarium head blight in % sev. after 11 to 20 days after application ([3]; 60 g a.i./ha): 52 % sev.
- Fusarium head blight in % sev. after 21 to 46 days after application ([3]; 60 g a.i./ha): 64 % sev.
